Read-outs that look alike come from different tables or passages of the source.
How the values were obtained:
HSV-1 TK [1] = assay: Substrate screen: phosphorylation of thymidine, TMP, GCV, ACV, dC, AZT by partially purified HSV-1 TKs; format: biochemical, herpes simplex virus type 1
Experimental: The activity of the purified HSV-1 TK was determined using the following standard reaction mixture for thymidine as a substrate (12): 3 μg of protein, 4 μM [^3H-methyl]thymidine (0.1 mCi/mmol), 20 mM potassium phosphate, pH 7.6, 1 mM DTT, 5 mM ATP, 5 mM MgCl2, 25 mM NaF, 40 mM KCl, and 0.5 mg/ml BSA in a total volume of 25 μl for 10 minutes at 37° C. To identify phosphorylated products, 20 μl of the reaction mixture was loaded onto a DE-81 filter and dried, washed once in 1 mM ammonium formate, twice more in 95% ethanol, and counted for radioactivity (12). Radioactivity was determined using an LKB 1214 Rackbeta liquid scintillation counter and corrected for background using controls with enzyme incubated in the absence of ATP. For TMPK activity, 20 μM [^3H-methyl]TMP was substituted for thymidine in the above assay mixture, and [^3H]TDP product was determined by separation from [^3H]TMP on thin layer PEI-cellulose plates developed in 0.35M LiCl (21). Amount of product converted to TDP was quantitated by scintillation counting of the excised TMP and TDP spots. The filter binding assay was used to quantitate the phosphorylation of [^3H]dC (200) μM and [^3H]AZT (200 μM) with the four enzymes. To compare relative enzymatic activities for [^3H]GCV (50 μM) and [^3H]ACV (50 μM), reactions were loaded onto small DE-52 columns packed in Pasteur pipettes as previously described (22).
As an initial screen for activity, each expressed HSV-1 TK enzyme was assayed for phosphorylation of the following substrates: thymidine (4 μM), TMP (20 μM), ACV (50 μM), GCV (50 μM), deoxycytidine (dC, 200 μM), or 3′-azido-2′,3′dideoxythymidine (AZT, 200 μM). Enzymatic conditions for optimal wild-type HSV-1 TK activities were utilized, thus results presented in Table 1 for each substrate were normalized to 100% values for comparative purposes. As expected, the wild-type Gln-125 HSV-1 TK efficiently phosphorylated each of these substrates. For each mutant, there was a striking decrease in their ability to phosphorylate pyrimidine nucleosides, and minimal TMPK activity for the TMP substrate.

HSV-1 TK [2] = molecular target: T1, HSV-1 TK (Human herpesvirus 1, UniProt P0DTH5, Q125D); format: biochemical, herpes simplex virus type 1; conditions: substrate GCV
T1 construct: made in house; host or cells: E. coli BL21SY211 (pET-9a derived pET-TK plasmids)
T1 sequence (P0DTH5 1-376 Q125D): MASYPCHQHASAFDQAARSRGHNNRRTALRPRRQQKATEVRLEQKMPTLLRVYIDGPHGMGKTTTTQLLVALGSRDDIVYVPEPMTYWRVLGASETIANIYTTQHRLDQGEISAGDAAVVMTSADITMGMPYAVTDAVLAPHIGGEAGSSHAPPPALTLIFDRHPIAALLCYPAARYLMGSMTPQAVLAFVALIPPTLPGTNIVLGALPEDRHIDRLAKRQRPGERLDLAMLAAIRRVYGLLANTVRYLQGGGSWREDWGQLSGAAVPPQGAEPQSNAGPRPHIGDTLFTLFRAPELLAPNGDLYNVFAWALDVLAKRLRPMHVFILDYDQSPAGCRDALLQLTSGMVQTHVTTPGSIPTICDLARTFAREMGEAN
Experimental: (§1) For determination of Km values of thymidine and GCV for the four enzymes, the filter binding assay was utilized. The basic reaction components were as above, and the following enzyme concentrations, substrate ranges and times were used under linear initial velocity conditions: for [^3H]thymidine: parent Gln-125TK: 0.1 μg TK, 0.1-4 μM, 10 min; Asn-125TK: 0.2 μg TK, 0.25-10 μM, 15 min; Asp-125TK: 4 μg TK, 0.1-2.5 μM, 30 min; Glu-125TK 0.5 μg TK, 0.5-2.5 μM, 15 min. For [^3H]GCV: parent Gln-125TK: 2 μg TK, 5-100 μM, 15 min; Asn-125TK: 0.6 μg TK, 0.5-15 μM, 15 min; Asp-125TK: Not determined; Glu-125TK 4 μg TK, 50-1000 μM, 25 min. Each reaction was done in triplicate. For calculation of kinetic constants, non-linear regression Michaelis-Menten analyses were done using PSI-PLOT version 5.0 (Poly Software International).
(§2) Unlike the substrate screening assays presented in Table 1, linear velocity conditions for each enzyme and substrate were established prior to Km determinations.

HSV-1 TK [3] = format: biochemical, herpes simplex virus type 1; conditions: substrate thymidine
Experimental: as §1, §2

HCT-116 cells = assay: MTT cell viability, sensitivity to GCV killing, HCT-116 cell lines expressing HSV-1 TKs; format: cell-based, human; conditions: HCT-116, GCV 0-5 μM, 4 days, FIG. 3B
Experimental: Cells were plated in triplicate and exposed to 0, 0.05, 0.5 or 5 μM GCV for four days. Cell viabilities were determined using MTT dye. […] FIG. 3A: NIH3T3 cell lines, FIG. 3B: HCT-116 cell lines; parental cells (noTK, dark bands); Asp125TK (Asp-#, brick band); Glu-125TK (Glu-#, cross-hatch bands); Asn-125TK (Asn-#, gray bands); wild-type HSV-1 TK (WT-#, striped bands).
A Moloney murine leukemia virus derived plasmid for the expression of HSV-TK, termed pLENTK, has been previously constructed (24). A unique BspEI-MluI restriction fragment within the HSV-TK sequence of pLENTK contains the Gln-125 mutation site. This fragment was removed from wild-type plasmid and replaced with the analogous fragments encoding each mutant. […] Along with wild-type HSV-1 TK plasmid, each mutant-TK plasmid was transfected individually into the murine fibroblast cell line, NIH 3T3, and the human colon tumor cell line, HCT-116, using lipofectin reagent (GIBCO/BRL) (2 μg plasmid, 14 μl lipid per 1×10^6 cells). Cells were maintained in RPMI 1640 media and selected with G418 (200 μg/ml for 2 weeks) as previously described (24). At least eight individual G418 resistant cell clones were picked and grown up for further characterization. Each clone was screened initially for growth inhibition by 25 μM GCV. Those clones that were sensitive were further analyzed for HSV-TK protein expression by Western blot analysis with a polyclonal, rabbit anti-HSV-TK antibody (a gift from Dr. Margaret Black). For each clone, cell numbers were normalized to 1×10^6, and equal protein loading was confirmed for each sample by gel staining. Blotted HSV-1 TK protein bands were visualized on film using ECL chromophore reagents (Amersham). For analysis of GCV sensitivity of different clones, NIH3T3 and HCT-116 cell sets were seeded in 96 well plates in 0.1 ml media (15,000 cells/well). The next day, a dose range of GCV (0.005 to 5 mM, n=3) was added in 0.1 ml media. After 4 days, MTT ([…]) was added for 1.5 hours, followed by DMSO solubilization of the cells and absorbance reading at 540 nm (25).
cDNA for each mutant was incorporated into a Moloney murine leukemia virus plasmid (24). The plasmids for wild-type HSV-1 TK and each mutant were individually transfected into either NIH3T3 cells or the human colon tumor cell line, HCT-116. Following drug selection in G418, individual cell clones were evaluated for sensitivity to GCV and relative levels of HSV-1 TK expression. Using an HSV-1 TK antibody and extracts normalized by protein and cell number, the relative expression levels of HSV-1 TK in each cell clone were determined.

## Asp-125
HSV-1 TK [1]; substrate ACV 50 μM
  Product formation ACVMP: 14 % of wild-type Gln-125
HSV-1 TK [1]; substrate AZT 200 μM
  Product formation AZTMP: 8 % of wild-type Gln-125
HSV-1 TK [1]; substrate GCV 50 μM
  Product formation GCVMP: 0.7 % of wild-type Gln-125
HSV-1 TK [1]; substrate TMP 20 μM
  Product formation TDP (TMPK activity): 4 % of wild-type Gln-125
HSV-1 TK [1]; substrate dC 200 μM
  Product formation dCMP: >0.1 % of wild-type Gln-125
HSV-1 TK [1]; substrate thymidine 4 μM
  Product formation TMP: 0.5 % of wild-type Gln-125
HSV-1 TK [2]
  Ganciclovir phosphorylation kinetics (in words): poorly phosphorylate ganciclovir, but with non-linear kinetics
HSV-1 TK [2]; listed as Asp-125TK
  Ganciclovir phosphorylation kinetics (in words): no linear velocity conditions could be established
HSV-1 TK [3]
  Change of kcat for thymidine relative to wild-type (in words): doubled
  Increase of Km for thymidine relative to wild-type enzyme: ~6000 fold
  kcat thymidine: 0.11 s⁻¹
HSV-1 TK [3]; read-out: Km thymidine
  Km: 6 mM
HCT-116 cells
  Dose dependent cell killing by GCV (cell viability, MTT): little effect on cell viability
